From patent US5032505A, “Inhibitors for glycosaminosyl transferase V” (Chembiomed, Ltd., priority 1988, dated 1991)

Tests used:
GnT-V [1] = biological target: T1, GnT-V (Mesocricetus auratus, UniProt A0A1U8C8T3); assay: GnT-V acceptor assay (transfer of GlcNAc from UDP-GlcNAc to synthetic acceptor); format: biochemical
T1 sequence (A0A1U8C8T3 1-740): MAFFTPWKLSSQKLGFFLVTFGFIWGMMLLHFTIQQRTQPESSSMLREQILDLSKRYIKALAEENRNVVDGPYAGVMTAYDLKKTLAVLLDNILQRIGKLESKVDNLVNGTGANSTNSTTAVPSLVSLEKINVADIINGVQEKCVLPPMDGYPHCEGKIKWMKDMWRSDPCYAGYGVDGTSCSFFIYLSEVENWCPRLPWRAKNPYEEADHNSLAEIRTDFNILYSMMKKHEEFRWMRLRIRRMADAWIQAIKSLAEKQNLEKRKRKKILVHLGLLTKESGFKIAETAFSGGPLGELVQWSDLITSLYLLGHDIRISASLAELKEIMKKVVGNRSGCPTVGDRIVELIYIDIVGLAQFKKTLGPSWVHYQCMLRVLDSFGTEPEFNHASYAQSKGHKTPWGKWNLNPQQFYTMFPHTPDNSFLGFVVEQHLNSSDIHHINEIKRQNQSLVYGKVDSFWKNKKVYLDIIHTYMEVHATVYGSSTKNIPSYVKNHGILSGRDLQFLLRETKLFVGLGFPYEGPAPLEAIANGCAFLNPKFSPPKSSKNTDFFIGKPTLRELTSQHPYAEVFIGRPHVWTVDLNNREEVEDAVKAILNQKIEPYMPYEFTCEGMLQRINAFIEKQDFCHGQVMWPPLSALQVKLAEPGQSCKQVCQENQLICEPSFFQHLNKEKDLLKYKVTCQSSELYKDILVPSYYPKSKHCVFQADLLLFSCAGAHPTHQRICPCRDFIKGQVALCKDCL
Procedure: One form of the assay is conducted by measuring the uptake of beta-GlcNAc from UDP-beta GlcNAc in the presence of the test extract by the acceptors of the invention. A variety of protocols to detect this uptake can be employed, including, for example, conjugation of the acceptor to a solid support and measuring the uptake of labeled beta-GlcNAc. An illustrative procedure is set forth, using as acceptor the trisaccharide 8-methoxycarbonyl octyl beta-GlcNAc(1-2)alpha-Man(1-6)beta-Man, in Pierce, M., et al, Biochem Biophys Res Commun (1987) 146:679-684, incorporated herein by reference. This procedure uses radiolabeled UDP-beta GlcNAc to provide a detection means for uptake of the substrate. Other protocols for measuring GnT-V using the acceptors of the invention can be adapted, for example, from the procedure used to measure the levels of GnT-V acceptor in EPO published application 134,292 to Abbott Laboratories.
The procedure for assaying GnT-V activity is described in Tahir, S.H., et al, Can J Chem (1986) 64:1771, cited above, and incorporated herein by reference. This procedure is also described in Palcic, M. M., et al, Glycoconjugate J (1988) 5:49, and in Hindsgual, O., et al, Carbohydrate Res (1988) 173:263, both incorporated herein by reference. The latter two citations describe the results of this assay using various synthetic acceptors.

B16 melanoma = conditions: literature; cited from earlier work
MDAY-D2 lymphoma cells = conditions: literature; cited from earlier work
tumor cells [2] = conditions: literature; cited from earlier work
tumor cells [3] = conditions: literature; cited from earlier work; remark: listed apart in the source
GnT-V [4] = biological target: T1, GnT-V; conditions: as acceptor for GnT-V; Palcic reference; read-out: apparent Km; cited from earlier work

With COC(=O)CCCCCCCCO[C@@H]1O[C@H](CO[C@H]2O[C@H](CO)[C@@H](O)[C@H](O)[C@@H]2O)[C@@H](O)[C@H](O[C@H]2O[C@H](CO)[C@@H](O)[C@H](O)[C@@H]2O)[C@@H]1O [GnT-1 Acceptor] the entry into cells (Lec8 CHO Cells) was “has entered the cells to some extent after 3 hr and to a greater extent after 6”.

For CC(=O)N[C@H]1[C@H](O[C@@H]2[C@@H](OCC3CCCCC3)O[C@H](CO)[C@@H](O)[C@@H]2O)O[C@H](CO)[C@@H](O)[C@@H]1O [Cyclohexylmethyl 6-O-[2-O-(2-acetamido-2-deoxy-beta-D-glucopyranosyl)-alpha-D-mannopyranoside]], the “ability to act as an acceptor, relative to the remaining compounds” value (GnT-V [1]; relative to the other five octyl trisaccharide acceptors) was “about 25%”.

In the case of O[C@H]1[C@H]2[C@H](O)CCCN2C[C@H]1O [swainsonine], the “organ colonization by B16 melanoma” value (B16 melanoma) is given as “inhibit organ colonization by B16 melanoma”, the “colonization by metastatic MDAY-D2 lymphoma cells” value (MDAY-D2 lymphoma cells) is given as “inhibit colonization by metastatic MDAY-D2 lymphoma cells” and the “tumor cell growth rate in soft agar” value (tumor cells [2]) is given as “reduce tumor cell growth rate in soft agar”. For the same compound, the “susceptibility of tumor cells to natural killer cells” value (tumor cells [3]) was “enhance susceptibility of tumor cells to natural killer cells”.

In the case of tunicamycin, the “organ colonization by B16 melanoma” value (B16 melanoma) is listed as “inhibit organ colonization by B16 melanoma”.

For O[C@H]1[C@H](O)[C@@H](O)CN2CC[C@H](O)[C@H]12 [castanospermine], the “organ colonization by B16 melanoma” value (B16 melanoma) is listed as “inhibit organ colonization by B16 melanoma”.

For COC(=O)CCCCCCCCO[C@@H]1O[C@H](CO[C@H]2O[C@H](CO)[C@@H](O)[C@H](O)[C@@H]2O[C@@H]2O[C@H](CO)[C@@H](O)[C@H](O)[C@H]2NC(C)=O)[C@@H](O)[C@H](O)[C@@H]1O [8-methoxycarbonyloctyl 6-O-[2-O-(2-acetamido-2-deoxy-beta-D-glucopyranosyl)-alpha-D-mannopyranosyl]-beta-D-mannopyranoside], the Km (GnT-V [4]) is listed as 80 µM.

With CCCCCCCCO[C@@H]1O[C@H]([C@H](C)O[C@H]2O[C@H](CO)[C@@H](O)[C@H](O)[C@@H]2O[C@@H]2O[C@H](CO)[C@@H](O)[C@H](O)[C@H]2NC(C)=O)[C@@H](O)[C@H](O)[C@H]1O [proS methylated compound] the “effectiveness as an acceptor” value (GnT-V [1]; compared with the proR methylated compound) was “less effective as an acceptor”.

With CCCCCCCCO[C@@H]1O[C@H]([C@@H](C)O[C@H]2O[C@H](CO)[C@@H](O)[C@H](O)[C@@H]2O[C@@H]2O[C@H](CO)[C@@H](O)[C@H](O)[C@H]2NC(C)=O)[C@@H](O)[C@H](O)[C@H]1O the “Vmax relative to the unmethylated analog” value (GnT-V [1]; as acceptor, assay of the Pierce reference) was “three times that of the unmethylated analog”.
